Results from patent US10556860B2, “hTERT modulators and methods of use” (Arizona Board of Regents on Behalf of the University of …, priority 2015, dated 2020).
Where “and” joins values, the source holds several entries; their conditions need not be identical. Equal values may be shown once.

What was measured:
[1] = test system: hTERT WT G4 (5-12 G-quadruplex); experiment: CD melting (Tm), hTERT WT G4; assay type: binding, human
Protocol: (§1) Circular dichroism. Oligomers of WT, G124A, G124/125A, G138/139A and G146A were synthesized and HPSF-purified by MGW Operon, Inc. For CD analysis, oligomers (5 μM) in a buffer containing 10 mM Tris-HCl (pH 7.5) and 140 mM KCl were annealed. For the CD analysis of the complex of oligomers and compounds, oligomers (5 μM) in a buffer containing 10 mM Tris-HCl (pH 7.5) and 5 mM KCl for GTC365 or 1 mM KCl for BRACO-19 were annealed. Oligomers and GTC365 or BRACO-19 were incubated overnight at room temperature. For the full-length of C-rich strand, the oligomer in a buffer of 10 mM Na cacodylate (pH 6.6) was annealed and then incubated with GTC365 overnight. CD analysis was conducted on a Jasco 810 spectropolarimeter (Jasco, Easton, Md.) using a quartz cell with 1 mm of path length, 1 nm of band width, and 1 s of response time for spectra at 20° C. Melting curves for the determination of Tm were obtained by recording ellipticity at 262 nm with increasing temperatures from 25° C. to 95° C. at a rate of 1.6° C./min. Tm of the C-rich strand with GTC365 was obtained from the CD signal at 286 nm within 10-60° C.
(§2) CD and DMS footprinting analyses were conducted to characterize the binding of GTC365 and BRACO-19 to the 5-12 G-quadruplex. […] To verify the effects of compounds on the thermal stability of the WT and the mutant G-quadruplexes, Tms were determined by CD. […] Since acridine derivatives are known to bind to telomeric G-quadruplex, the effects of GTC365 and BRACO-19 on telomeric G-quadruplex stability were compared by CD.

Telomeric G4 = experiment: CD melting (Tm), telomeric G4; assay type: binding
Protocol: as §1, §2
In contrast, BRACO-19 increased the Tm of telomeric G-quadruplex by ˜60% compared to that of the hTERT G-quadruplex at 0.5 and 1 equiv. A summary of the comparative Tms of GTC365 and BRACO-19 in hTERT and telomeric DNA is shown below.

WT 5-12 G-quadruplex = experiment: CD kinetics, temperature-jump, WT; assay type: biochemical, human; conditions: 2 equiv
Protocol: FIGS. 10A and 10B are a set of graphs showing (A) comparison of kinetics of initial folding rate of the WT 5-12 G-quadruplex with GTC365 and BRACO-19 by the temperature-jump method. (B) Enhanced initial folding rate of the 5-12 G-quadruplexes carrying different hTERT mutants by GTC365. The time-course CD signal of preheated oligo with compound or DMSO in a buffer containing 10 mM Tris-HCl (pH 7.5) and 5 mM KCl was monitored at 262 nm and 25° C.
For the kinetics analysis using the temperature-jump method, theoligo in a buffer containing 10 mM Tris-HCl (pH 7.5) was heated forl min at 95° C., and then a mixture of KCl and compound was addedand incubated for 1 min. Meanwhile, the CD cuvette was also heatedat 95° C. As soon as the sample in the CD cuvette at the hightemperature was placed in the CD chamber, a time-dependent CDsignal at 262 nm was recorded immediately. The initial folding ratewas determined by one-phase association curve fitting (eq 1) of thekinetics curve using GraphPad Prism 5: Y=Y0+(Plateau−Y0)*(1−e^−kx) (1) where Y is the CD signal at any time point x, Y0 is the Y value whentime (x) is zero, plateau is the Y value at infinite time, and k is the rateconstant.
To evaluate the comparative effects of GTC365 relative to BRACO-19 on the cooperative folding process, we carried out two different experiments. First, we compared the distribution of the different populations of small and large species using single-molecule experiments as described previously withGTC365 and BRACO-19 in the G138/139A mutant. Similar to the G124/125A mutant, the population of fully folded structures is small in the G138/139A mutant without addition of ligand. […] We then used a temperature-jump method84to compare the initial folding rate of the 5-12 WT G-quadruplex with GTC365 and BRACO-19 using a time-course CD signal curve. […] GTC365 alsoincreased the initial folding rates of G124A, G124/125A, andG146A in a dose-dependent manner by 0.049, 0.042, and 0.054s^−1 at 2 equiv, whereas the effect on the G138/139A mutant was insignificant (FIG. 10B). […]

hTERT mRNA = experiment: qPCR of hTERT mRNA in MCF7 cells; assay type: cell-based, human
Protocol: (§3) qPCR. MCF7 and melanoma cells were treated with GTC365 and BRACO-19 for 72 h. Total RNA was extracted using an RNeasy mini-prep kit (Qiagen) and quantitated by measuring absorbance at 260 nm. cDNA was synthesized using a Takara PrimeScript™ RT Reagent Kit with gDNA eraser and then used as a template for qPCR. The qPCR was performed using Kapa Probe Fast qPCR Master Mix with ABI Taqman probes of hTERT (Hs00972656_m1), BCL2 (HS00608023_m1, FAM-labeled) or MYC (Hs00153408_m1), and GAPDH (Hs02758991_g1, VIC-labeled). The Ct values were measured by running Rotor-Gene Q, and the relative quantity of hTERT, BCL2, and MYC mRNA was obtained compared to GAPDH as an internal control.
(§4) BCL2 is a downstream molecule to hTERT such that BCL2 expression is activated by hTERT to repress apoptosis. To further define the effect of GTC365 on the transcription of hTERT, the relative mRNA levels of MYC and BCL2 were determined by quantitative PCR analysis in MCF7 cells after treatment with GTC365 for 72 h. […] A series of GTC260 analogs were synthesized and their effect on hTERT gene expression in MCF7A and U87 cells determined (FIG. 7). […] Therefore, GTC365 directly repressed the transcription of hTERT and then led to a downstream decrease of BCL2 expression.

BCL2 mRNA = experiment: qPCR of BCL2 mRNA in MCF7 cells; assay type: cell-based, human; conditions: 72 h
Protocol: as §3, §4

MYC mRNA = experiment: qPCR of MYC mRNA in MCF7 cells; assay type: cell-based, human; conditions: 72 h
Protocol: as §3, §4

Compound | increase in Tm (ΔTm) ([1]; 0.5 equivalents) [°C] | increase in Tm (ΔTm) ([1]; 1 equivalent) [°C] | Tm of telomeric G-quadruplex increased compared to that of the hTERT G-quadruplex (Telomeric G4; 0.5 and 1 equiv) [%] | increase in Tm (ΔTm) (Telomeric G4; 0.5 equivalents) [°C] | increase in Tm (ΔTm) (Telomeric G4; 1 equivalent) [°C] | increase of initial folding rate (WT 5-12 G-quadruplex) [s⁻¹] | effect on hTERT transcription / mRNA level (hTERT mRNA) | effect on BCL2 mRNA level (BCL2 mRNA) | effect on MYC mRNA level (MYC mRNA) | increase in Tm (ΔTm) ([1]; 2 equivalents) | Tm increase of telomeric G-quadruplex less than that of the hTERT G-quadruplex (Telomeric G4; 1 and 2 equiv) [%] | increase in Tm (ΔTm) (Telomeric G4; 2 equivalents) [°C] | initial folding rate (WT 5-12 G-quadruplex; without compound 0.051, 5 mM KCl, 25° C.) [s⁻¹] | decrease of hTERT mRNA level (hTERT mRNA; 72 h, 1 μM) | decrease of BCL2 mRNA level (BCL2 mRNA; 1 μM)
CN(C)c1ccc(Nc2c3ccc(NC(=O)CCN4CCCC4)cc3nc3cc(NC(=O)CCN4CCCC4)ccc23)cc1 [BRACO-19, reference compound] | 2.41 | 8.73 | ~60 | 4.24 | 14.6 | 0.017 | decreased | no significant effect | decreased |  |  |  |  |  | 
N=C(N)NCCCS(=O)(=O)Nc1ccc(Nc2c3ccccc3nc3cc([N+](=O)[O-])ccc23)cc1 [GTC365] |  | 6.47 |  |  | 4.4 | 0.042 | significant effect |  | no significant change | 12.9 °C and 12.92 °C | 42 | 7.5 | 0.093 | up to 67% | up to 18%
